Values quoted from earlier work in patent publication US20120277147A1, “PREVENTION OF HYPOGLYCAEMIA IN DIABETES MELLITUS TYPE 2 PATIENTS” (priority 2011, published 2012).

Test system: patients with type 2 diabetes treated with metformin and a sulfonylurea
Details: 30 week; patients unable to achieve adequate glycemic control with combined metformin-sulfonylurea therapy

In the case of “Exendin-4: native exendin peptide, SEQ ID NO: 2 (39 AS), which can lower blood glucose concentration”, the “Effect on HbA1c” value is listed as “significantly reduced HbA1c”.
